Calls of active or inactive are those of the source. The rule behind the calls is not given here.
What was measured:
[1] = molecular target: T1, Bile acid receptor (Homo sapiens) (UniProt Q96RI1); experiment: Antagonist activity at human FXR expressed in african green monkey CV1 cells co-expressing RXRE with RXR co-factor by luciferase reporter gene assay; assay type: functional, cell-based; details: CV-1
T1 sequence (whole entry): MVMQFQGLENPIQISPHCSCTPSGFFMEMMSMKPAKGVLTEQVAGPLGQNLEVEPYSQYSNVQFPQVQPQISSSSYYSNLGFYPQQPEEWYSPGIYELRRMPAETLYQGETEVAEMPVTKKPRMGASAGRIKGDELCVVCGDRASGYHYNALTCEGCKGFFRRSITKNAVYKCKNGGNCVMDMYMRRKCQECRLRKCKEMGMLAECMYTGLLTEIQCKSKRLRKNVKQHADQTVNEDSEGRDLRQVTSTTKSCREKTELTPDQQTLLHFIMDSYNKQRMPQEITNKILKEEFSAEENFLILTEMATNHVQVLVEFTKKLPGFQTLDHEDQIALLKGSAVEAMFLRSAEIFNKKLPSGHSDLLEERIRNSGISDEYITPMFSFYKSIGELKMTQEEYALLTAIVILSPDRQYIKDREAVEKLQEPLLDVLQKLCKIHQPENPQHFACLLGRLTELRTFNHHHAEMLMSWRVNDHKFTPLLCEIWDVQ

[2] = Clearance in CD rat at 3 mg/kg, iv; assay type: ADME, organism-based; set-up: dose 3 mg/kg, route intravenous; details: in vivo
[3] = AUC (0 to t) in CD rat at 3 mg/kg, iv; assay type: ADME, organism-based; set-up: dose 3 mg/kg, route intravenous; details: plasma
Progesterone receptor = Progesterone receptor (Homo sapiens, UniProt P06401); experiment: Antagonist activity at gal-PR expressed in african green monkey CV1 cells co-expressing MH100 by luciferase reporter gene assay; assay type: functional, cell-based, CV-1
[4] = molecular target: T2, Peroxisome proliferator-activated receptor gamma (Homo sapiens) (UniProt P37231); experiment: Agonist activity at PPARgamma expressed in african green monkey CV1 cells co-expressing PPRE up to 10 uM by luciferase reporter gene assay relative to control; assay type: functional, cell-based; details: CV-1
T2 sequence (whole entry): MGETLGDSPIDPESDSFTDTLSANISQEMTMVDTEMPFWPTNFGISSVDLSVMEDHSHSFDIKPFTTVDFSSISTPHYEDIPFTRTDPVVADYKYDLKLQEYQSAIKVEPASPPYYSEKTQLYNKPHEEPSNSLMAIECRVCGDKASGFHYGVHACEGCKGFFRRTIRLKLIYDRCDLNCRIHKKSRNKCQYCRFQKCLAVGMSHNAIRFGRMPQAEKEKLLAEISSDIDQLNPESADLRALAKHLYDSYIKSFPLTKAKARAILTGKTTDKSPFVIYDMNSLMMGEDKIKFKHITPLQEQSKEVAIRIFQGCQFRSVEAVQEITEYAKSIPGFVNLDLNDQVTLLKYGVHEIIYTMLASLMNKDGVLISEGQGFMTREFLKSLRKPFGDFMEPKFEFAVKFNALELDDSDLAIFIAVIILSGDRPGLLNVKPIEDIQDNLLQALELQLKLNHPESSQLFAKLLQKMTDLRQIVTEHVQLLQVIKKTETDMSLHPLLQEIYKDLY

[5] = molecular target: T3, Androgen receptor (Homo sapiens) (UniProt P10275); experiment: Agonist activity at human gal-AR expressed in african green monkey CV1 cells co-expressing MH100 with pGRIP1 co-factor up to 10 uM by luciferase reporter gene assay relative to control; assay type: functional, cell-based; details: CV-1
T3 sequence (whole entry): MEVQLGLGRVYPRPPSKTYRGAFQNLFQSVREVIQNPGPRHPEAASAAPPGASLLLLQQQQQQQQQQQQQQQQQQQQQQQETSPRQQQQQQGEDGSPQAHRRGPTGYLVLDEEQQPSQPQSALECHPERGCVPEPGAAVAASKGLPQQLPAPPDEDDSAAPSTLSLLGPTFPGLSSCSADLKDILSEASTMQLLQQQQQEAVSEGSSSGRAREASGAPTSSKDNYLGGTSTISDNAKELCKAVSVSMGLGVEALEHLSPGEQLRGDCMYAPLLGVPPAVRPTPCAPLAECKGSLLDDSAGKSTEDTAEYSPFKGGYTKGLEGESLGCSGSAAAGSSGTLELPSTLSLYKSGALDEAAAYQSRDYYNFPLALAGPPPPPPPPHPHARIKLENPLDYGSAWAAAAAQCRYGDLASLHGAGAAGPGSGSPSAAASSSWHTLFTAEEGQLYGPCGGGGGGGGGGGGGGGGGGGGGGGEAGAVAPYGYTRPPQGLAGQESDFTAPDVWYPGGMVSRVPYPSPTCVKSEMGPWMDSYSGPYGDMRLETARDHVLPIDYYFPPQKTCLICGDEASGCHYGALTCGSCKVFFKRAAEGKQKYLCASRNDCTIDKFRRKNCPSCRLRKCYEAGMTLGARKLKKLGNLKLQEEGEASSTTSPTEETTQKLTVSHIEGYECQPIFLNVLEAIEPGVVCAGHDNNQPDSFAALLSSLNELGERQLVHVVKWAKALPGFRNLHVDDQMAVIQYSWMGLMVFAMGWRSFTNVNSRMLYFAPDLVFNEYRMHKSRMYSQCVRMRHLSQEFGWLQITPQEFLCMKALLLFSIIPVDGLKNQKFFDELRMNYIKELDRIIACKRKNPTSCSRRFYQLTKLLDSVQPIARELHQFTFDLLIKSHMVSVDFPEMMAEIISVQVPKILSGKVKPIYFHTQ

Mus musculus [6] = experiment: Reduction of plasma triglyceride level in western diet-induced hyperlipidemia LDLR knockout mouse model at 3 mg/kg, po administered for 6 weeks; assay type: functional; set-up: scale not given: the % may be the effect or the level left
[7] = molecular target: Estrogen receptor beta (Homo sapiens) (UniProt Q92731); experiment: Antagonist activity at gal-ERbeta expressed in african green monkey CV1 cells co-expressing MH100 by luciferase reporter gene assay; assay type: functional, cell-based; details: CV-1
Mus musculus [8] = experiment: Reduction of plasma triglyceride level in western diet-induced hyperlipidemia LDLR knockout mouse model at 1 mg/kg, po administered for 6 weeks; assay type: functional; set-up: scale not given: the % may be the effect or the level left
[9] = molecular target: T4, Peroxisome proliferator-activated receptor alpha (Homo sapiens) (UniProt Q07869); experiment: Agonist activity at PPARalpha expressed in african green monkey CV1 cells co-expressing MH100 up to 10 uM by luciferase reporter gene assay relative to control; assay type: functional, cell-based; details: CV-1
T4 sequence (whole entry): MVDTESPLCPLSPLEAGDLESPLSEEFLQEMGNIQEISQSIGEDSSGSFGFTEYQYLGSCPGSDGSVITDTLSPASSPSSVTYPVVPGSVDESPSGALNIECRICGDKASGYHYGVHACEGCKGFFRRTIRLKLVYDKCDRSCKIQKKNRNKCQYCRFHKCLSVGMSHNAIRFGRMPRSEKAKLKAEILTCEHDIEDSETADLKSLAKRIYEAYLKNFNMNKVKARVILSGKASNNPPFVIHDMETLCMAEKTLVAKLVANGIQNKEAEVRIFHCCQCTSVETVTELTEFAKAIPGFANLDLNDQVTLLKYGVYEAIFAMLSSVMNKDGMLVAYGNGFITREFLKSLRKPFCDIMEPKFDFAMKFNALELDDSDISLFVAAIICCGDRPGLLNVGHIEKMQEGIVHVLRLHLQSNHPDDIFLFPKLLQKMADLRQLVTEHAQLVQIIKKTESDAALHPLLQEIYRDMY

Estrogen receptor beta (Homo sapiens), sequence (Q92731 whole entry): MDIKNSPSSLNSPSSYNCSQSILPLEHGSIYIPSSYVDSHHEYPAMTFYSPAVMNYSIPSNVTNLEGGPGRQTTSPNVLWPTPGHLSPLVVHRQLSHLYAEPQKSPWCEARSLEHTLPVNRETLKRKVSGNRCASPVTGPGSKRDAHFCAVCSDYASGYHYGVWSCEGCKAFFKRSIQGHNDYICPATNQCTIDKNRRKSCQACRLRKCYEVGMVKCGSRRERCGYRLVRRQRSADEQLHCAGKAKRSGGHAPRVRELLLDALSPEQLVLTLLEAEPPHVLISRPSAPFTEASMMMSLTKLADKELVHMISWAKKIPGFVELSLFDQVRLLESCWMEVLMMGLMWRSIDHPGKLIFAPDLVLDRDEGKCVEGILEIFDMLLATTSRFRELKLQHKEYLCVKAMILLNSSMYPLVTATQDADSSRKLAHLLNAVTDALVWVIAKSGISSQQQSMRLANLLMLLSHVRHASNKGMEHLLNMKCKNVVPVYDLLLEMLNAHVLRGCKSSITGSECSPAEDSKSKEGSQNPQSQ
Progesterone receptor, sequence (P06401 whole entry): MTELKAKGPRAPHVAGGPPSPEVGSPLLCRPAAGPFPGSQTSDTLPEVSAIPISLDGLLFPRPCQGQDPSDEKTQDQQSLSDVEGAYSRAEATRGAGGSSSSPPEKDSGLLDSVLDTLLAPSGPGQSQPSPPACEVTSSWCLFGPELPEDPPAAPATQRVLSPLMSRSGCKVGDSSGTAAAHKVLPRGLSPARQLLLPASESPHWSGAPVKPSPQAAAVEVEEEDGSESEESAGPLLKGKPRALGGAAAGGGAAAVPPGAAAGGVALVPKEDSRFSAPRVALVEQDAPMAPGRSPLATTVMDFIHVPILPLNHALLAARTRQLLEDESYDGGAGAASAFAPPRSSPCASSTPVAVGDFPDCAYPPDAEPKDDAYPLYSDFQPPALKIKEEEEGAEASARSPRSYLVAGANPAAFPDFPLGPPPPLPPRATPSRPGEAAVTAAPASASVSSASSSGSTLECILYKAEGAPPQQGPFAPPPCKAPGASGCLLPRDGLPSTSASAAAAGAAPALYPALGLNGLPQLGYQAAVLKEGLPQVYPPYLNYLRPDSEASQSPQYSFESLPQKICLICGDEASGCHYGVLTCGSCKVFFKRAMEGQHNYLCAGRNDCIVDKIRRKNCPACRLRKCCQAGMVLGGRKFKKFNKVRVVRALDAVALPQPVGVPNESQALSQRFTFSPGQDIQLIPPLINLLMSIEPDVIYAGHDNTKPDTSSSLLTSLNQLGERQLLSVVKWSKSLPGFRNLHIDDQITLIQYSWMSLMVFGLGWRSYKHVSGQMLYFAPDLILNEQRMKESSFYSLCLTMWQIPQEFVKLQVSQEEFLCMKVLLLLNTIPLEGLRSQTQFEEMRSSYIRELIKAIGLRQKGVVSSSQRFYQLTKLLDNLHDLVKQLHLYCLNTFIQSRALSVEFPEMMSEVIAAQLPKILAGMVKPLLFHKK

CC(C)OC(=O)C1=CN(C(=O)c2ccc(F)c(F)c2)CC(C)(C)c2c1[nH]c1ccccc21 [TUROFEXORATE ISOPROPYL]
Activity [1]: inactive | clearance [2]: 5.68 mL/min/kg | AUC(0-t) [3]: 19.1 µM·h | IC50 (Progesterone receptor): 10 µM | Activity [4]: inactive | Activity [5]: inactive | Activity (Mus musculus [6]): 39% | Activity [7]: inactive | Activity (Mus musculus [8]): 19% | Activity [9]: inactive

Source: ChEMBL document CHEMBL1140941 (J Med Chem, 2009)
